Read-outs that look alike come from different tables or passages of the source.
Experiments:
[1] = molecular target: T1, Lp-PLA2 in rabbit serum (Oryctolagus cuniculus, UniProt G1SE06); assay: In vitro inhibitory activity towards the enzyme Lp-PLA2 in rabbit serum, [3H]PAF substrate; type: biochemical
T1 construct: from tissue; host or cells: rabbit serum
T1 sequence (G1SE06 22-423): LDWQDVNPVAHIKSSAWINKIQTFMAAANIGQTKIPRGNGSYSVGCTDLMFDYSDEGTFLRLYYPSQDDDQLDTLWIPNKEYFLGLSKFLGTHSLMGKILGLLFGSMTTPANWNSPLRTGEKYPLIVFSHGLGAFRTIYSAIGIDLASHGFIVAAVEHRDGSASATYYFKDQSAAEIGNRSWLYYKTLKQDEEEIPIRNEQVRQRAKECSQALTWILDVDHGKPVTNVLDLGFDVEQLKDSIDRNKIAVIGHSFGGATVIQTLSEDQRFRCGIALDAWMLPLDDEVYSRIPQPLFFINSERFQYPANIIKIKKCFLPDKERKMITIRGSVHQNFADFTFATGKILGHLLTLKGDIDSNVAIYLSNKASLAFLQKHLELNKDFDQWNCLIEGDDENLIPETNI
Experimental: (§1) The activities of compounds were measured using [^3H] labeled platelet activating factor ([^3H]PAF, Perkinelmer, Lot NET910) as the substrate. The reaction was carried out in a system containing 50 mmol/L HEPES and 150 mmol/L NaCl (pH 7.4) in a total volume of 200 μl. First, 10 μL rabbit serum and 10 μl DMSO solution of the test compound were added to the system and preincubated for 10 min at 37° C. Then 20 nM [^3H]PAF was added as listed in table 1 to start the reaction and incubated for a further 10 min at 37° C. After that, 600 μl of CHCl3/MeOH (2:1) was added and the resulting mixture was vortex mixed and the reaction was stopped. After settled for a while, the mixture was centrifugated at 12000×g for 15 min. The supernatant was transferred to a new tube and 200 μl of CHCl3 was added. The mixture was mixed by vortexing and then settled or centrifugated for 2 min. A 100 μl portion of the supernatant was then collected for radioactivity intensity measurement.
The inhibition rate was determined by the following equation:
Inhibitory rate (%)=1−(DPMcompound tube−DPMblank tube)/(DPMcontrol tube−DPMblank tube)*100%
(Note: DPM is radioactivity intensity unit.)

[2] = molecular target: T2, Lp-PLA2 in human serum (Homo sapiens, UniProt Q13093); assay: In vitro inhibitory activity towards the enzyme Lp-PLA2 in human serum, [3H]PAF substrate; type: biochemical
T2 construct: from tissue
T2 sequence (Q13093 22-441): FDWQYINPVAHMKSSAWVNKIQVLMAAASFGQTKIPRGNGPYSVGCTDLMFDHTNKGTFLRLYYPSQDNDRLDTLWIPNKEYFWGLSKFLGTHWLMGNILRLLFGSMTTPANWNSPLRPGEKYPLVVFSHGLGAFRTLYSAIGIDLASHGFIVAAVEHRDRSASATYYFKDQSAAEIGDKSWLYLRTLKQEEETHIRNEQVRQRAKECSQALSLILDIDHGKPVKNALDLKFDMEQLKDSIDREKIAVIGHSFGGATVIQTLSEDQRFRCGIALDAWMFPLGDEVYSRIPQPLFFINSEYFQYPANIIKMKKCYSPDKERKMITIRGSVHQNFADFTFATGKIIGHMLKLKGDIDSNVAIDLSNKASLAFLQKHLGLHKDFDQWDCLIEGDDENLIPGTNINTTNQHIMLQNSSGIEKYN
Experimental: as §1, with “mmol/l” for “mmol/L”, “human plasma” for “rabbit serum”, “was” for “was vortex”, “with vortex.” for “and the reaction was stopped.”, “added and mixed by vortexing.” for “added.”, “was” for “was mixed by vortexing and then”

[3] = 100 nM, rabbit serum, read-out: inhibition, %
[4] = 100 nM, read-out: inhibitory rate towards the rabbit serum derived Lp-PLA2 enzyme
[5] = 10 nM, human serum, read-out: inhibition, %
[6] = 10 nM, read-out: inhibitory rate towards the human serum derived Lp-PLA2 enzyme

## CN(C)C(=O)c1cnc(Cn2c(SCc3ccc(F)cc3)nc(=O)c3c2CCC3)n1Cc1ccc(-c2ccc(C(F)(F)F)cc2)cc1 [Example 52, 2-((2-(4-fluorobenzylthio)-4-oxo-4,5,6,7-tetrahydro-1H-cyclopenta[d]pyrimidin-1-yl)methyl)-N,N-dimethyl-1-((4′-(trifluoromethyl)biphenyl-4-yl)methyl)-1H-imid azole-5-carboxamide]
[1]; [3]
  inhibition at 0.1 µM: 90%
[1]; [4]
  inhibition at 0.1 µM: > 90%
[2]; [5]
  inhibition at 0.01 µM: 97%
[2]; [6]
  inhibition at 0.01 µM: > 80%
[2]; 100 nM, human serum
  inhibition at 0.1 µM: 99%

## O=c1nc(SCc2ccc(F)cc2)n(Cc2ncn(Cc3ccc(-c4ccc(C(F)(F)F)cc4)cc3)n2)c2c1CCC2 [Example 61, 2-(4-fluorobenzylthio)-1-((1-((4′-(trifluoromethyl)biphenyl-4-yl)methyl)-1H-1,2,4-triazol-3-yl)methyl)-6,7-dihydro-1H-cyclopenta[d]pyrimidin-4(5H)-one]
[1]; [3]
  inhibition at 0.1 µM: 61%
[2]; [5]
  inhibition at 0.01 µM: 59%
[2]; 100 nM, human serum
  inhibition at 0.1 µM: 91%

## COC(=O)CN(C)Cc1nnc(Cn2c(SCc3ccc(F)cc3)nc(=O)c3c2CCC3)n1Cc1ccc(-c2ccc(C(F)(F)F)cc2)cc1 [Example 62, methyl 2-(((5-((2-(4-fluorobenzylthio)-4-oxo-4,5,6,7-tetrahydro-1H-cyclopenta[d]pyrimidin-1-yl)methyl)-4-((4′-(trifluoromethyl)biphenyl-4-yl)methyl)-4H-1,2,4-triazol-3-yl)methyl)(methyl)amino)acetate]
[1]; 100 nM, rabbit serum, 0.1 µM
  inhibition, %: 73.8%
[1]; [3]
  inhibition at 0.1 µM: 81.9%
[2]; 10 nM, human serum, 0.01 µM
  inhibition, %: 76%
[2]; [5]
  inhibition at 0.01 µM: 83%
[2]; 100 nM, human serum
  inhibition at 0.1 µM: 96%
[2]; 100 nM, human serum, 0.1 µM
  inhibition, %: 94%

## Cc1nnc(Cn2c(SCc3ccc(F)cc3)nc(=O)c3c2CCC3)n1Cc1ccc(-c2ccc(C(F)(F)F)cc2)cc1 [Example 64, 2-(4-fluorobenzylthio)-1-((5-methyl-4-((4′-(trifluoromethyl)biphenyl-4-yl)methyl)-4H-1,2,4-triazol-3-yl)methyl)-6,7-dihydro-1H-cyclopenta[d]pyrimidin-4(5H)-one]
[1]; [3]
  inhibition at 0.1 µM: 78.9%
[2]; [5]
  inhibition at 0.01 µM: 73%
[2]; 100 nM, human serum
  inhibition at 0.1 µM: 93%

## Cc1nnc(Cn2cc(Cc3cnn(C)c3)c(=O)nc2SCc2ccc(F)cc2)n1Cc1ccc(-c2ccc(C(F)(F)F)cc2)cc1 [Example 65, 2-(4-fluorobenzylthio)-5-((1-methyl-1H-pyrazol-4-yl)methyl)-1-((5-methyl-4-((4′-(trifluoromethyl)biphenyl-4-yl)methyl)-4H-1,2,4-triazol-3-yl)methyl)pyrimidin-4(1H)-one]
[1]; [3]
  inhibition at 0.1 µM: 60%
[2]; [5]
  inhibition at 0.01 µM: 82%
[2]; 100 nM, human serum
  inhibition at 0.1 µM: 96%

## CCCc1nnc(Cn2c(SCc3ccc(F)cc3)nc(=O)c3c2CCC3)n1Cc1ccc(-c2ccc(C(F)(F)F)cc2)cc1 [Example 66, 2-(4-fluorobenzylthio)-1-((5-propyl-4-((4′-(trifluoromethyl)biphenyl-4-yl)methyl)-4H-1,2,4-triazol-3-yl)methyl)-6,7-dihydro-1H-cyclopenta[d]pyrimidin-4(5H)-one]
[1]; [3]
  inhibition at 0.1 µM: 88%
[2]; [5]
  inhibition at 0.01 µM: 88%
[2]; 100 nM, human serum
  inhibition at 0.1 µM: 98%

## CC(C)c1nnc(Cn2c(SCc3ccc(F)cc3)nc(=O)c3c2CCC3)n1Cc1ccc(-c2ccc(C(F)(F)F)cc2)cc1 [Example 67, 2-(4-fluorobenzylthio)-1-((5-isopropyl-4-((4′-(trifluoromethyl)biphenyl-4-yl)methyl)-4H-1,2,4-triazol-3-yl)methyl)-6,7-dihydro-1H-cyclopenta[d]pyrimidin-4(5H)-one]
[1]; [3]
  inhibition at 0.1 µM: 91%
[1]; [4]
  inhibition at 0.1 µM: > 90%
[2]; [5]
  inhibition at 0.01 µM: 92%
[2]; [6]
  inhibition at 0.01 µM: > 80%
[2]; 100 nM, human serum
  inhibition at 0.1 µM: 98%

## O=c1nc(SCc2ccc(F)cc2)n(Cc2nnc(C3CC3)n2Cc2ccc(-c3ccc(C(F)(F)F)cc3)cc2)c2c1CCC2 [Example 68, 1-((5-cyclopropyl-4-((4′-(trifluoromethyl)biphenyl-4-yl)methyl)-4H-1,2,4-triazol-3-yl)methyl)-2-(4-fluorobenzylthio)-6,7-dihydro-1H-cyclopenta[d]pyrimidin-4(5 H)-one]
[1]; [3]
  inhibition at 0.1 µM: 34%
[1]; 1 μM, rabbit serum
  inhibition at 1 µM: 87%
[2]; [5]
  inhibition at 0.01 µM: 93%
[2]; 100 nM, human serum
  inhibition at 0.1 µM: 97%

## O=c1nc(SCc2ccc(F)cc2)n(Cc2nnc(CS(=O)(=O)Cc3ccccc3)n2Cc2ccc(-c3ccc(C(F)(F)F)cc3)cc2)c2c1CCC2 [Example 69, 1-((5-(benzylsulfonylmethyl)-4-((4′-(trifluoromethyl)biphenyl-4-yl)methyl)-4H-1,2,4-triazol-3-yl)methyl)-2-(4-fluorobenzylthio)-6,7-dihydro-1H-cyclopenta[d]pyrimidin-4(5H)-one]
[1]; [3]
  inhibition at 0.1 µM: 89%
[2]; [5]
  inhibition at 0.01 µM: 87%
[2]; 100 nM, human serum
  inhibition at 0.1 µM: 97%

## O=c1nc(SCc2ccc(F)cc2)n(Cc2nnc(CO)n2Cc2ccc(-c3ccc(C(F)(F)F)cc3)cc2)c2c1CCC2 [Example 72, 2-(4-fluorobenzylthio)-1-((5-(hydroxymethyl)-4-((4′-(trifluoromethyl)biphenyl-4-yl)methyl)-4H-1,2,4-triazol-3-yl)methyl)-6,7-dihydro-1H-cyclopenta[d]pyrimidin-4(5H)-one]
[1]; [3]
  inhibition at 0.1 µM: 73%
[2]; [5]
  inhibition at 0.01 µM: 65%
[2]; 100 nM, human serum
  inhibition at 0.1 µM: 91%

## CN(C)Cc1nnc(Cn2c(SCc3ccc(F)cc3)nc(=O)c3c2CCC3)n1Cc1ccc(-c2ccc(C(F)(F)F)cc2)cc1 [Example 75, 1-((5-((dimethylamino)methyl)-4-((4′-(trifluoromethyl)biphenyl-4-yl)methyl)-4H-1,2,4-triazol-3-yl)methyl)-2-(4-fluorobenzylthio)-6,7-dihydro-1H-cyclopenta[d]pyrimidin-4(5H)-one]
[1]; [3]
  inhibition at 0.1 µM: 88.3%
[2]; [5]
  inhibition at 0.01 µM: 85%
[2]; 100 nM, human serum
  inhibition at 0.1 µM: 97%

## C[N+](C)(Cc1ccc(F)cc1)Cc1nnc(Cn2c(SCc3ccc(F)cc3)nc(=O)c3c2CCC3)n1Cc1ccc(-c2ccc(C(F)(F)F)cc2)cc1 [Example 76, N-(4-fluorobenzyl)-1-(5-((2-(4-fluorobenzylthio)-4-oxo-4,5,6,7-tetrahydro-1H-cyclopenta[d]pyrimidin-1-yl)methyl)-4-((4′-(trifluoromethyl)biphenyl-4-yl)methyl)-4 H-1,2,4-triazol-3-yl)-N,N-dimethylmethanaminium bromide]
[1]; [3]
  inhibition at 0.1 µM: 97%
[1]; [4]
  inhibition at 0.1 µM: > 90%
[2]; [5]
  inhibition at 0.01 µM: 100%
[2]; [6]
  inhibition at 0.01 µM: > 80%
[2]; 100 nM, human serum
  inhibition at 0.1 µM: 100%

## C[N+](C)(C)Cc1nnc(Cn2c(SCc3ccc(F)cc3)nc(=O)c3c2CCC3)n1Cc1ccc(-c2ccc(C(F)(F)F)cc2)cc1 [Example 77, 1-(5-((2-(4-fluorobenzylthio)-4-oxo-4,5,6,7-tetrahydro-1H-cyclopenta[d]pyrimidin-1-yl)methyl)-4-((4′-(trifluoromethyl)biphenyl-4-yl)methyl)-4H-1,2,4-triazol-3-yl)-N,N,N-trimethylmethanaminium iodide]
[1]; [3]
  inhibition at 0.1 µM: 93%
[1]; [4]
  inhibition at 0.1 µM: > 90%
[2]; [5]
  inhibition at 0.01 µM: 97%
[2]; [6]
  inhibition at 0.01 µM: > 80%
[2]; 100 nM, human serum
  inhibition at 0.1 µM: 98%

— patent publication US20140171431A1, “AZOLE HETEROCYCLIC COMPOUND, PREPARATION METHOD, PHARMACEUTICAL COMPOSITION AND USE” (priority 2011, published 2014)
